Test results from article PMC7822874, “Chemoprotective antimalarials identified through quantitative high-throughput screening of Plasmodium blood and liver stage parasites” (Scientific Reports, 2021).
Like-named read-outs stand apart in the source and are kept apart here.

Experiments:
in vitro = details: human
[1] = tested on: P. berghei-ANKA-GFP-LucCON liver stage parasites in HepG2-A16-CD81EGFP cells; assay: P. berghei liver stage Pb-Luc assay, Method 1 (UCSD, 1536-well); format: cell-based, Plasmodium berghei; details: for activity at 1 µM / activity at 3 µM: 48 h, average of 2 wells on a 1536 well plate; for activity at 1 µM: 1 uM (compounds provided at 10 mM); for activity at 3 µM: 3 uM (compounds provided at 10 mM); for Max Resp (signal direction of the dose response) / AC50 / Log AC50 (M): Method 1; for Max Resp (signal direction of the dose response): Decrease = decreasing P. berghei viability with dose, Increase = increasing signal, Inactive = no dose response
[2] = tested on: Plasmodium falciparum Dd2 asexual blood stage parasites; assay: microbe, parasite or virus in culture; design: species or system Plasmodium falciparum Dd2 in human erythrocytes; single determination (one 11-point concentration-response curve); details: Plasmodium falciparum, DD2, Erythrocyte, 72 h; read-out: AC50
[3] = HepG2-A16-CD81EGFP cells, uninfected
[4] = Plasmodium berghei, column 11, read-out: Pb-Luc (P. berghei liver stage), % of control, lower concentration, first repeat
[5] = Plasmodium berghei, column 12, read-out: Pb-Luc (P. berghei liver stage), % of control, lower concentration, second repeat
[6] = Plasmodium berghei, column 8, read-out: Pb-Luc (P. berghei liver stage), % of control, higher concentration, first repeat
[7] = Plasmodium berghei, column 9, read-out: Pb-Luc (P. berghei liver stage), % of control, higher concentration, second repeat
[8] = Plasmodium berghei, Hill fit, 50% of maximum activity response, read-out: AC50
[9] = Plasmodium berghei, log10 of molar AC50 from Hill fit, read-out: Log AC50 (converted)
[10] = Hill fit, 50% of maximum activity response, read-out: AC50
[11] = log10 of molar AC50 from Hill fit

| Compound | viability at 48 h, 1 µM (in vitro; [3]) [%] | viability at 48 h, 3 µM (in vitro; [3]) [%] | activity at 1 µM [1, 4] [%] | activity at 1 µM [1, 5] [%] | activity at 3 µM [1, 6] [%] | activity at 3 µM [1, 7] [%] | AC50 [2] [nM] | viability at 48 h (in vitro; [3]) [%] | Max Resp (signal direction of the dose response) [1] | viability at 66 h (in vitro) [%] | AC50 [1, 8] [nM] | AC50 [1, 9] [nM] | viability at 66 h (in vitro; [3]) [%] | AC50 [1, 10] [nM] | Log AC50 (M) [1, 11] [M] | viability at 48 h (in vitro) [%] | viability at 48 h, 1 µM (in vitro) [%] |
| --- | --- | --- | --- | --- | --- | --- | --- | --- | --- | --- | --- | --- | --- | --- | --- | --- | --- |
| COc1ccccc1CNCC(O)(c1ccc(Cl)cc1)c1ccc(Cl)cc1 [MLS000325719-01] | 95 | 101 | 101 | 103 | 108 | 98 | 1500 | – | – | – | – | – | – | – | – | – | – |
| Cc1ccc(NC(=O)c2cc(C(=O)c3cc(Cl)ccc3O)cn(-c3ccc(C)cc3)c2=O)cc1 [MLS000374606-01] | 106 | 93 | 98 | 87 | 59 | 61 | 422 | – | – | – | – | – | – | – | – | – | – |
| COc1cc(Cl)c(C)cc1NC(C)C(=O)Nc1cc(C(F)(F)F)ccc1N1CCOCC1 (centres unmarked) [MLS000375301-01] | 109 | 94 | 124 | 129 | 103 | 103 | 422 | – | – | – | – | – | – | – | – | – | – |
| Nc1cc[n+](CC(=O)c2ccc3c(c2)OCCO3)cc1 [MLS000391090-01] | 97.8 | – | – | – | – | – | 13300 | 97.8 | Inactive | – | – | – | – | – | – | – | – |
| COc1ccc(C)cc1N(C(=O)COc1cccc(F)c1)c1nc2ccccc2s1 [MLS000394477-01] | 91 | 106 | 105 | 106 | 107 | 110 | 5960 | – | – | – | – | – | – | – | – | – | – |
| CCOC(=O)c1c(NC(=O)c2ccccc2)sc2c(O)c(CN(CC)CC)ccc12 [MLS000523141-01] | 91 | 102 | 104 | 107 | 99 | 98 | 150 | – | – | – | – | – | – | – | – | – | – |
| CCOC(=O)c1cnc2c(C)cc(C)cc2c1O [MLS000530578-01] | – | – | – | – | – | – | 4220 | – | – | 104 | 1410 | 1410 | – | – | – | – | – |
| CCOC(=O)c1nnn(-c2nonc2-n2cccc2)c1CN1CCC(C(=O)OCC)CC1 [MLS000538888-01] | 108 | 103 | 103 | 96 | 92 | 82 | 4730 | – | – | – | – | – | – | – | – | – | – |
| CC1=C(CC(=O)c2ccc(Cl)cc2)C(=O)c2ccccc2C1=O [MLS000543314-01] | 105 | 100 | 78 | 79 | 77 | 70 | 211 | – | – | – | – | – | – | – | – | – | – |
| CCCOc1ccc(CCc2nnc(S)n2Cc2ccccc2)cc1 [MLS000562311-01] | 122 | 100 | 157 | 149 | 161 | 162 | 5310 | – | – | – | – | – | – | – | – | – | – |
| COCC(C)n1c(C)cc(C(=O)CSc2nnc(Nc3ccccc3F)s2)c1C (centres unmarked) [MLS000566129-01] | 95 | 101 | 126 | 124 | 118 | 120 | 2990 | – | – | – | – | – | – | – | – | – | – |
| CC(C)(C)N1C(=O)c2ccc(C(=O)Nc3ccc(-c4nc5ccccc5[nH]4)cc3)cc2C1=O [MLS000567491-01] | 94 | 108 | 114 | 117 | 141 | 128 | 6680 | – | – | – | – | – | – | – | – | – | – |
| CC(C)COc1ccc(C(=O)N/C(=C\c2cccc([N+](=O)[O-])c2)C(=O)OC(C)C)cc1 [MLS000574251-01] | 111 | 102 | 90 | 84 | 65 | 69 | 531 | – | – | – | – | – | – | – | – | – | – |
| O=C(Nc1cccnc1)c1cc(-c2cccnc2)nc2ccc(Br)cc12 [MLS000582206-01] | 109 | 104 | 112 | 106 | 80 | 95 | 2660 | – | – | – | – | – | – | – | – | – | – |
| CCCc1ccc(OCc2nc(-c3ccc(NC(=O)c4cccs4)cc3)no2)cc1 [MLS000584893-01] | 97.2 | – | – | – | – | – | 15000 | 97.2 | Decrease | – | 1410 | 1410 | – | – | – | – | – |
| Fc1ccc(-c2csc3ncnc(Cl)c23)cc1 [MLS000590541-01] | 111 | 101 | 115 | 105 | 120 | 132 | 3350 | – | – | – | – | – | – | – | – | – | – |

| Compound | viability at 48 h, 1 µM (in vitro; [3]) [%] | viability at 48 h, 3 µM (in vitro; [3]) [%] | activity at 1 µM [1, 4] [%] | activity at 1 µM [1, 5] [%] | activity at 3 µM [1, 6] [%] | activity at 3 µM [1, 7] [%] | AC50 [2] [nM] | viability at 48 h (in vitro; [3]) [%] | Max Resp (signal direction of the dose response) [1] | viability at 66 h (in vitro) [%] | AC50 [1, 8] [nM] | AC50 [1, 9] [nM] | viability at 66 h (in vitro; [3]) [%] | AC50 [1, 10] [nM] | Log AC50 (M) [1, 11] [M] | viability at 48 h (in vitro) [%] | viability at 48 h, 1 µM (in vitro) [%] |
| --- | --- | --- | --- | --- | --- | --- | --- | --- | --- | --- | --- | --- | --- | --- | --- | --- | --- |
| OCCNc1nc(Nc2ccc(Br)cc2)nc2ccccc12 [MLS000625070-01] | – | – | – | – | – | – | 2660 | – | Decrease | – | 1410 | 1410 | 97 | 2240 | -5.650 | – | – |
| CCOC(=O)c1c(C)oc2c1C(=O)c1ccccc1C2=O [MLS000684830-01] | 105 | 99 | 95 | 85 | 72 | 93 | 422 | – | – | – | – | – | – | – | – | – | – |
| Oc1ccccc1Nc1nc(NCc2ccco2)c2ccccc2n1 [MLS000693437-01] | 95.6 | – | – | – | – | – | 2990 | 95.6 | Inactive | – | – | – | – | – | – | – | – |
| CC1CCCCN1S(=O)(=O)c1ccc(C(=O)Nc2ccccc2-c2nc3ccccc3[nH]2)cc1 (centres unmarked) [MLS000697052-01] | – | – | – | – | – | – | 7500 | – | – | – | 355 | 355 | 104 | – | – | – | – |
| CCOC(=O)c1ccc(N=C(S)N2CCN(CCNC3=CC(=O)CC(C)(C)C3)CC2)cc1 [MLS000710946-01] | 96 | 101 | 118 | 96 | 134 | 116 | 5960 | – | – | – | – | – | – | – | – | – | – |
| COc1ccc(-c2c(C)nn3c(N)c(C#N)cnc23)cc1OC [MLS000718813-01] | – | – | – | – | – | – | 1680 | – | Decrease | – | 1260 | 1260 | 108 | 1410 | -5.850 | – | – |
| CCOc1ccc(NC(=O)c2cc3ccccc3cc2O)cc1 [MLS000736677-01] | – | – | – | – | – | – | 5310 | – | Decrease | – | 501 | 501 | – | – | – | 100 | 100 |
| CCCCCNc1nc2sc3c(c2c(=O)n1-c1cccc(Cl)c1)CCN(C)C3 [MLS000762913-01] | 92 | 105 | 99 | 101 | 72 | 91 | 7500 | – | – | – | – | – | – | – | – | – | – |
| Cc1ccc(/C=N/Nc2cc(C)nc(NCc3ccccc3)n2)cc1 [MLS000769291-01] | 98 | 95 | 97 | 106 | 138 | 126 | 5310 | – | – | – | – | – | – | – | – | – | – |
| COc1cc(O)c(C(CCN2CCCCC2)c2ccc3c(c2)OCO3)c(OC)c1 (centres unmarked) [MLS000879495-01] | 113 | 94 | 100 | 116 | 99 | 98 | 1330 | – | – | – | – | – | – | – | – | – | – |
| COc1cc(O)c(C(CCN2CCN(c3ccccc3)CC2)c2cc(OC)c(OC)c(OC)c2)c(OC)c1 (centres unmarked) [MLS000879517-01] | 96 | 102 | 87 | 82 | 84 | 91 | 1330 | – | – | – | – | – | – | – | – | – | – |
| COc1cc(O)c(C(CCN2CCN(c3ccccc3)CC2)c2ccc3c(c2)OCO3)c(OC)c1 (centres unmarked) [MLS000879526-01] | 117 | 96 | 105 | 112 | 97 | 92 | 841 | – | – | – | – | – | – | – | – | – | – |
| NC1=NC[C@@H](Cc2ccc(O)cc2)N1CCCCC1CCCCC1 [MLS000888822-01] | 116 | 94 | 90 | 82 | 35 | 46 | 4730 | – | – | – | – | – | – | – | – | – | – |
| CCN1CCN(Cc2ccc(NC(=O)c3cc(NC(=O)c4cnn(-c5ccccc5)c4N)cc(OC)c3)cc2C(F)(F)F)CC1 [MLS000911569-01] | 98 | 106 | 116 | 92 | 116 | 103 | 2110 | – | – | – | – | – | – | – | – | – | – |
| O=C(Nc1ccc(-c2csc(Nc3ccccc3)n2)cc1)c1cc([N+](=O)[O-])cc(C(F)(F)F)c1 [MLS000911606-01] | – | – | – | – | – | – | 2110 | – | – | – | 2820 | 2820 | 104 | – | – | – | – |
